Source: patent publication US20210246159A1, “NOVEL FORM OF BARDOXOLONE METHYL” (Johnson Matthey Public Limited Company, priority 2020, published 2021)

Experiment: Storage stability of the crystalline form at 30° C. / 65% RH in a capped vial
Format: physicochemical
Source text: The crystalline formic acid solvate of bardoxolone methyl; more particularly, Form A, can be dried by any conventional methods known to one of ordinary skill in the art. In one embodiment, it is desirable to avoid extensive drying of the crystalline formic acid solvate of bardoxolone methyl; more particularly, Form A, to avoid the potential for desolvation. In one embodiment, it is desirable to store the crystalline formic acid solvate of bardoxolone methyl; more particularly, Form A, away from high heat and humidity. Form A remains stable at 30° C. at 65% RH for at least 5 days in a capped vial.

- time Form A remains stable: at least 5 days
SMILES: COC(=O)[C@]12CCC(C)(C)C[C@H]1[C@H]1C(=O)C=C3[C@@]4(C)C=C(C#N)C(=O)C(C)(C)[C@@H]4CC[C@@]3(C)[C@]1(C)CC2 [Form A, di-formic acid solvate of bardoxolone methyl]
